Test results taken from PubChem BioAssay AID296 (DTP/NCI, 2004).
Where “and” joins values, the source holds several entries; their conditions need not be identical. Identical values can stand only once. Inconclusive results are not listed.

System: MX-1 breast xenograft, nude mice, tumor weight T/C
Assay: NCI In Vivo Anticancer Drug Screen. Data for tumor model Human Mammary Carcinoma MX-1 Xenograft (intrarenal inoculation) in NU/NU Swiss (nude) mice
Conditions: endpoint: mean tumor weight change, higher = larger tumour
Method in brief: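 Mice carrying the implanted tumor receive either test agent or vehicle. Tumor size or survival is then recorded for both groups. Results are stated as the treated-to-control quotient.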

[1] = dose: 300.0 mg/kg/injection, schedule: Q04DX003 (sc), vehicle: saline
[2] = dose: 600.0 mg/kg/injection, schedule: Q04DX003 (sc), vehicle: saline
[3] = dose: 1200.0 mg/kg/injection, schedule: Q04DX003 (sc), vehicle: saline
[4] = dose: 50.0 mg/kg/injection, schedule: Q04DX003 (sc), vehicle: Klucel (hydroxypropylcellulose) (HPC)
[5] = dose: 75.0 mg/kg/injection, schedule: Q04DX003 (sc), vehicle: saline with Tween-80
[6] = dose: 150.0 mg/kg/injection, schedule: Q04DX003 (sc), vehicle: saline with Tween-80
[7] = dose: 25.0 mg/kg/injection, schedule: Q04DX003 (sc), vehicle: Klucel (hydroxypropylcellulose) (HPC)
[8] = dose: 100.0 mg/kg/injection, schedule: Q01DX010 (sc), vehicle: Klucel (hydroxypropylcellulose) (HPC)
[9] = dose: 200.0 mg/kg/injection, schedule: Q01DX010 (sc), vehicle: Klucel (hydroxypropylcellulose) (HPC)

Q: How did the T/C (dose: 150.0 mg/kg/injection, schedule: Q04DX003 (sc), vehicle: saline) turn out when `O=c1ncccn1[C@@H]1O[C@H](CO)[C@H](O)C1O` (stereo partly specified) was run?
A: 114 % of control

Q: And the T/C [1]?
A: 156 % of control

Q: What about the T/C [2] of the same molecule?
A: 160 % of control

Q: What about the T/C [3] of the same molecule?
A: 108 % of control

Q: What does the source list for `F[B-](F)(F)F`?
A: T/C (dose: 300.0 mg/kg/injection, schedule: Q04DX003 (sc), vehicle: gum acacia): 106 % of control; T/C (dose: 600.0 mg/kg/injection, schedule: Q04DX003 (sc), vehicle: gum acacia): 104 % of control; T/C (dose: 1200.0 mg/kg/injection, schedule: Q04DX003 (sc), vehicle: gum acacia): 70 % of control

Q: For `O=C1NC(c2ccccc2)N=C2Oc3ccccc3C=C12` (stereo unspecified), which T/C (dose: 50.0 mg/kg/injection, schedule: Q01DX008 (sc), vehicle: saline with Tween-80) is on record?
A: 57 % of control

Q: And the T/C (dose: 100.0 mg/kg/injection, schedule: Q01DX008 (sc), vehicle: saline with Tween-80)?
A: 71 % of control

Q: What about the T/C (dose: 200.0 mg/kg/injection, schedule: Q01DX008 (sc), vehicle: saline with Tween-80) of the same molecule?
A: 56 % of control

Q: And the T/C (dose: 400.0 mg/kg/injection, schedule: Q01DX008 (sc), vehicle: saline with Tween-80)?
A: 80 % of control

Q: With `O=[N+]([O-])c1ccc([I+]c2ccccc2)cc1` as the molecule, how does the T/C (dose: 75.0 mg/kg/injection, schedule: Q04DX003 (ip), vehicle: Klucel (hydroxypropylcellulose) (HPC)) read?
A: 92 % of control

Q: With `Nc1nncs1` as the molecule, how does the T/C (dose: 3.13 mg/kg/injection, schedule: Q01DX010 (sc), vehicle: saline) read?
A: 92 % of control

Q: And the T/C (dose: 6.25 mg/kg/injection, schedule: Q01DX010 (sc), vehicle: saline)?
A: 99 % of control

Q: And the T/C (dose: 25.0 mg/kg/injection, schedule: Q01DX010 (sc), vehicle: saline)?
A: 86 % of control

Q: `COc1ccc(-c2csc(=[N+]3CCCCC3)s2)cc1` was tested. Which T/C (dose: 3.12 mg/kg/injection, schedule: Q04DX003 (sc), vehicle: water) did it give?
A: 89 % of control

Q: What about the T/C (dose: 6.25 mg/kg/injection, schedule: Q04DX003 (sc), vehicle: water) of the same molecule?
A: 85 % of control

Q: What about the T/C (dose: 12.5 mg/kg/injection, schedule: Q04DX003 (sc), vehicle: water) of the same molecule?
A: 89 % of control

Q: `C1CC[N-]CC1.[Cl][Pt+2][Cl].[NH-]C1CC1` was tested. Which T/C (dose: 25.0 mg/kg/injection, schedule: Q04DX003 (sc), vehicle: water) did it give?
A: 60 % of control

Q: What about the T/C [4] of the same molecule?
A: 34 % of control and 55 % of control

Q: And the T/C (dose: 50.0 mg/kg/injection, schedule: Q04DX003 (sc), vehicle: water)?
A: 11 % of control

Q: And the T/C (dose: 100.0 mg/kg/injection, schedule: Q04DX003 (sc), vehicle: water)?
A: -83 % of control

Q: What does the source list for `Cn1c2nc(=O)n(-c3ccccc3)c(=O)c-2nc2c1CCCC2`?
A: T/C (dose: 37.5 mg/kg/injection, schedule: Q04DX003 (sc), vehicle: saline with Tween-80): 104 % of control; T/C [5]: 111 % of control; T/C [6]: 87 % of control

Q: What does the source list for `O=NN(CCCl)C(=O)NC1CCC(=O)NC1=O` (stereo unspecified)?
A: T/C (dose: 1.56 mg/kg/injection, schedule: Q01DX010 (sc), vehicle: saline with Tween-80): 100 % of control; T/C (dose: 3.13 mg/kg/injection, schedule: Q01DX010 (sc), vehicle: saline with Tween-80): 69 % of control and 72 % of control; T/C (dose: 6.25 mg/kg/injection, schedule: Q01DX010 (sc), vehicle: saline with Tween-80): 2 % of control and 15 % of control and 25 % of control; T/C (dose: 12.5 mg/kg/injection, schedule: Q01DX010 (sc), vehicle: saline with Tween-80): -87 % of control and -84 % of control

Q: For `CCO/C=C1\SC(=S)N(c2ccccc2C)C1=O`, which T/C (dose: 100.0 mg/kg/injection, schedule: Q01DX010 (sc), vehicle: saline with Tween-80) is on record?
A: 121 % of control

Q: What about the T/C (dose: 200.0 mg/kg/injection, schedule: Q01DX010 (sc), vehicle: saline with Tween-80) of the same molecule?
A: 90 % of control

Q: And the T/C (dose: 800.0 mg/kg/injection, schedule: Q01DX010 (sc), vehicle: saline with Tween-80)?
A: 111 % of control

Q: With `C/C(=N\N=C(/[Se])N1CC2CCC(CC2)C1)c1ccccn1` as the molecule, how does the T/C [7] read?
A: 106 % of control

Q: What about the T/C [4] of the same molecule?
A: 110 % of control

Q: Which results are given for `c1ccc(OCC2CO2)c(OCC2CO2)c1` (stereo unspecified)?
A: T/C (dose: 150.0 mg/kg/injection, schedule: Q04DX003 (ip), vehicle: saline with Tween-80): 95 % of control; T/C (dose: 300.0 mg/kg/injection, schedule: Q04DX003 (ip), vehicle: saline with Tween-80): 99 % of control

Q: How did the T/C (dose: 0.38 mg/kg/injection, schedule: Q04DX003 (sc), vehicle: saline) turn out when `CSCS(=O)C[C@H](CO)NC(=O)/C=C/c1c(C)[nH]c(=O)[nH]c1=O` (stereo partly specified) was run?
A: 106 % of control

Q: And the T/C (dose: 0.75 mg/kg/injection, schedule: Q04DX003 (sc), vehicle: saline)?
A: 97 % of control

Q: For `N#C[Se-].c1ccc([Te+](c2ccccc2)c2ccccc2)cc1`, which T/C (dose: 3.75 mg/kg/injection, schedule: Q04DX003 (sc), vehicle: Klucel (hydroxypropylcellulose) (HPC)) is on record?
A: 101 % of control

Q: And the T/C (dose: 7.5 mg/kg/injection, schedule: Q04DX003 (sc), vehicle: Klucel (hydroxypropylcellulose) (HPC))?
A: 118 % of control

Q: What about the T/C (dose: 30.0 mg/kg/injection, schedule: Q04DX003 (sc), vehicle: Klucel (hydroxypropylcellulose) (HPC)) of the same molecule?
A: 75 % of control

Q: Which results are given for `CSc1cc(C)[o+]c(C)c1`?
A: T/C [7]: 76 % of control; T/C [4]: 68 % of control; T/C (dose: 100.0 mg/kg/injection, schedule: Q04DX003 (sc), vehicle: Klucel (hydroxypropylcellulose) (HPC)): 54 % of control; T/C (dose: 200.0 mg/kg/injection, schedule: Q04DX003 (sc), vehicle: Klucel (hydroxypropylcellulose) (HPC)): 36 % of control

Q: For `C[CH2][Ge]1([CH2]C)[CH2]CC2(CCN(CCCN(C)C)C2)C[CH2]1`, which T/C (dose: 12.5 mg/kg/injection, schedule: Q04DX003 (sc), vehicle: saline) is on record?
A: 72 % of control

Q: And the T/C (dose: 25.0 mg/kg/injection, schedule: Q04DX003 (sc), vehicle: saline)?
A: 92 % of control

Q: And the T/C (dose: 50.0 mg/kg/injection, schedule: Q04DX003 (sc), vehicle: saline)?
A: 72 % of control

Q: And the T/C (dose: 100.0 mg/kg/injection, schedule: Q04DX003 (sc), vehicle: saline)?
A: 85 % of control

Q: Which T/C [1] does the source give for `Cc1ccccc1CN1C2=NCCN2C(=O)C2=C1CCN(S(=O)(=O)c1ccc(Cl)c(S(N)(=O)=O)c1)C2` here?
A: 59 % of control

Q: And the T/C [2]?
A: 122 % of control

Q: What about the T/C [3] of the same molecule?
A: 109 % of control

Q: Which results are given for `O=C(O)C1CC1.[Ag]`?
A: T/C [5]: 120 % of control; T/C [6]: 80 % of control; T/C (dose: 300.0 mg/kg/injection, schedule: Q04DX003 (sc), vehicle: saline with Tween-80): 98 % of control

Q: How did the T/C (dose: 75.0 mg/kg/injection, schedule: Q04DX003 (sc), vehicle: Klucel (hydroxypropylcellulose) (HPC)) turn out when `O=C1C=CC(n2cc(F)c(=O)[nH]c2=O)O1` (stereo unspecified) was run?
A: 104 % of control

Q: What does the source list for `NC(=O)/C=C/C(=O)c1c(Cl)cccc1Cl`?
A: T/C (dose: 9.0 mg/kg/injection, schedule: Q04DX003 (sc), vehicle: saline with Tween-80): 78 % of control; T/C (dose: 36.0 mg/kg/injection, schedule: Q04DX003 (sc), vehicle: saline with Tween-80): 43 % of control

Q: Which T/C (dose: 12.0 mg/kg/injection, schedule: Q04DX003 (sc), vehicle: Klucel (hydroxypropylcellulose) (HPC)) does the source give for `CC1OC1C(=O)C1(O)C(C)C(O)C23OC2(C(O)c2c(O)cccc2C3=O)C1O` (stereo unspecified) here?
A: 102 % of control

Q: And the T/C (dose: 24.0 mg/kg/injection, schedule: Q04DX003 (sc), vehicle: Klucel (hydroxypropylcellulose) (HPC))?
A: 83 % of control

Q: And the T/C (dose: 48.0 mg/kg/injection, schedule: Q04DX003 (sc), vehicle: Klucel (hydroxypropylcellulose) (HPC))?
A: 83 % of control

Q: For `CCN1/C(=C/C=C/C=C/c2sc3ccccc3[n+]2CC)Sc2ccccc21`, which T/C (dose: 1.5 mg/kg/injection, schedule: Q04DX003 (sc), vehicle: suspension in saline) is on record?
A: 56 % of control

Q: What about the T/C (dose: 3.0 mg/kg/injection, schedule: Q04DX003 (sc), vehicle: suspension in saline) of the same molecule?
A: 35 % of control

Q: What about the T/C (dose: 6.0 mg/kg/injection, schedule: Q04DX003 (sc), vehicle: suspension in saline) of the same molecule?
A: 71 % of control

Q: How did the T/C [8] turn out when `CC1CN=C(c2ccc(NC(=O)c3ccc(C(=O)Nc4ccc(C5=NCC(C)N5)cc4)cc3)cc2)N1` (stereo unspecified) was run?
A: 96 % of control

Q: What about the T/C [9] of the same molecule?
A: 107 % of control

Q: What about the T/C (dose: 400.0 mg/kg/injection, schedule: Q01DX010 (sc), vehicle: Klucel (hydroxypropylcellulose) (HPC)) of the same molecule?
A: 110 % of control

Q: And the T/C (dose: 800.0 mg/kg/injection, schedule: Q01DX010 (sc), vehicle: Klucel (hydroxypropylcellulose) (HPC))?
A: 77 % of control

Q: What does the source list for `CC/C(=C(\c1ccccc1)c1ccc(OCCN(C)C)cc1)c1ccccc1`?
A: T/C (dose: 25.0 mg/kg/injection, schedule: Q01DX010 (sc), vehicle: Klucel (hydroxypropylcellulose) (HPC)): 171 % of control; T/C (dose: 50.0 mg/kg/injection, schedule: Q01DX010 (sc), vehicle: Klucel (hydroxypropylcellulose) (HPC)): 178 % of control; T/C [8]: 83 % of control; T/C (dose: 100.0 mg/kg/injection, schedule: Q04DX003 (sc), vehicle: suspension in saline): 61 % of control; T/C [9]: 240 % of control; T/C (dose: 200.0 mg/kg/injection, schedule: Q04DX003 (sc), vehicle: suspension in saline): 68 % of control; T/C (dose: 400.0 mg/kg/injection, schedule: Q04DX003 (sc), vehicle: suspension in saline): 89 % of control; T/C (dose: 800.0 mg/kg/injection, schedule: Q04DX003 (sc), vehicle: suspension in saline): 73 % of control
